The source made the active and inactive calls.

This passage reports IC50, AC50 and EC50 results from ChEMBL document CHEMBL1201862, “PubChem BioAssay data set” (2004).

The target in assay [1] is RNA-editing ligase 1, mitochondrial (Trypanosoma brucei brucei, UniProt P86926). The assay can be described thus: inhibition of trypanosome RNA editing ligase – biochemical, fluorescence, Trypanosoma brucei, dose response (AID 1117295). Type of assay: functional.
Assay [2] deals with T1, Sentrin-specific protease 8 (Homo sapiens, UniProt Q96LD8).
T1 sequence (Q96LD8 whole entry): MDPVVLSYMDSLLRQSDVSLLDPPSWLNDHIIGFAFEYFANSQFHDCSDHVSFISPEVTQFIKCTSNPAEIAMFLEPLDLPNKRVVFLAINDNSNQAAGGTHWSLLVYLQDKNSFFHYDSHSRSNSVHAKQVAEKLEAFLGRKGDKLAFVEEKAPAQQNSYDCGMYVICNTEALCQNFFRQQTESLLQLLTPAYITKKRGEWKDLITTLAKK
It counts as functional.

The target in assay [3] is T2, Sentrin-specific protease 7 (Homo sapiens, UniProt Q9BQF6).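 Further: Luminescence-based dose-response confirmation of ultra-high-throughput screening hits, measuring inhibition of SENP7.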
T2 sequence (Q9BQF6 whole entry): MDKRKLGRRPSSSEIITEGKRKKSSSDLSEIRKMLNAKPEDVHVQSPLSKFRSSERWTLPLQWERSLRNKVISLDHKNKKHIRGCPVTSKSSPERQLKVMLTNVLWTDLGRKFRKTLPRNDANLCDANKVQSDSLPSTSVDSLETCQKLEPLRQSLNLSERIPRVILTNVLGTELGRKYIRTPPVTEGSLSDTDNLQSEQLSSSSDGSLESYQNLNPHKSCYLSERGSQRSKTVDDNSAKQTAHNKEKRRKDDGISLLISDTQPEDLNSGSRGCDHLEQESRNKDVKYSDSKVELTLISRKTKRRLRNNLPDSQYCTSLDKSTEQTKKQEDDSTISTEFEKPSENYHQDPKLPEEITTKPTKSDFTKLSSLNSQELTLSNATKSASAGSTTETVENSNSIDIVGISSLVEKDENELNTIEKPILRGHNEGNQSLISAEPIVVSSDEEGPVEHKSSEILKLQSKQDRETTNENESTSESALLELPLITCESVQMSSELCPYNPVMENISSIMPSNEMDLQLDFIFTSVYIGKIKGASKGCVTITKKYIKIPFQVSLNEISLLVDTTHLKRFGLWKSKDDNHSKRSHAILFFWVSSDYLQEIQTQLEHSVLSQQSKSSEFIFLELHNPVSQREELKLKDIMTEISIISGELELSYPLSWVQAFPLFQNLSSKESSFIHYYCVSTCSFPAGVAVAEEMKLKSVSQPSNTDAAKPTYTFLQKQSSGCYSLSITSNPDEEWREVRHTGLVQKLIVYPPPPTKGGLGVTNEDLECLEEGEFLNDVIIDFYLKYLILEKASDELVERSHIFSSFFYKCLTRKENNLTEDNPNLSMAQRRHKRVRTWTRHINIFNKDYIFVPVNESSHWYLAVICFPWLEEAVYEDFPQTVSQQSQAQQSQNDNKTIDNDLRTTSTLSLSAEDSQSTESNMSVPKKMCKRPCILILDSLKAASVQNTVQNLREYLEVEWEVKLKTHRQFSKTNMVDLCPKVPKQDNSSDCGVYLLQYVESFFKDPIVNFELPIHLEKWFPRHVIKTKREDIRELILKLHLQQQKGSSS
It counts as functional.

The nature of assay [4]: non-specific 3'UTR reporter inhibition in Clone20-Shn3RL – cell-based, Renilla luciferase, cherry-picked, counter-screen for Shn3 inhibitor project, dose response (AID 624133). Type of assay: functional. (A counterscreen serves to expose hits that act by an unwanted route or on another target.)
The subject of assay [5] is CHO. The assay can be described thus: CHO cell viability loss, potency – luminescence, cytotoxicity control for TLR9-MyD88 binding inhibitor project, dose response (AID 588339).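 Further: CHO cells stably coexpressing TLR9 and MyD88 fusions from primary screen; compound exposure lasted 48 hours before viability readout.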 Conditions: Cricetulus griseus. Type of assay: functional, cell-based, hamster.
A short description of assay [6]: blockers of HIV-1 envelope-mediated cell-cell fusion – cherry-pick, dose response (AID 652057). Type of assay: functional, cell-based.
The target of assay [7] is T3, Calpain-2 catalytic subunit (Sus scrofa, UniProt P43367).
T3 sequence (P43367 whole entry): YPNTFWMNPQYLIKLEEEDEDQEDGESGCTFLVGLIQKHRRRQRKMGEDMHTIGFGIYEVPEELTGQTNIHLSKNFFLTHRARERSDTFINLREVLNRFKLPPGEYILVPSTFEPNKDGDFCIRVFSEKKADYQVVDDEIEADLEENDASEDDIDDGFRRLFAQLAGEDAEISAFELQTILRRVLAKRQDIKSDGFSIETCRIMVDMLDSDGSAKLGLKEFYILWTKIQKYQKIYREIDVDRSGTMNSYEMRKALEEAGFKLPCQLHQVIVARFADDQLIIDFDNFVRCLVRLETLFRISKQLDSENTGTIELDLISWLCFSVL
Briefly: m-calpain protease blockers, concentration series – biochemical, fluorogenic peptide substrate, dose response (AID 1420). It counts as functional.

Assay [8] can be described thus: off-target signal loss in HeLa-CEM21 co-culture – HeLa F-luc CTL cells, cherry-picked, counter-screen for HIV-1 Env fusion inhibitor project, dose response (AID 652040).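 Further: potency for signal decrease marking cytotoxic or nonspecific inhibition.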 Type of assay: functional, cell-based.
The target of assay [9] is Genome polyprotein (dengue virus type 2, UniProt P29990). The assay can be described thus: flavivirus cap methylation enzyme inhibition – biochemical, confirmation dose response, primary screen (AID 588689). It counts as functional.
Genome polyprotein, sequence (P29990 2492-3391 limits assumed): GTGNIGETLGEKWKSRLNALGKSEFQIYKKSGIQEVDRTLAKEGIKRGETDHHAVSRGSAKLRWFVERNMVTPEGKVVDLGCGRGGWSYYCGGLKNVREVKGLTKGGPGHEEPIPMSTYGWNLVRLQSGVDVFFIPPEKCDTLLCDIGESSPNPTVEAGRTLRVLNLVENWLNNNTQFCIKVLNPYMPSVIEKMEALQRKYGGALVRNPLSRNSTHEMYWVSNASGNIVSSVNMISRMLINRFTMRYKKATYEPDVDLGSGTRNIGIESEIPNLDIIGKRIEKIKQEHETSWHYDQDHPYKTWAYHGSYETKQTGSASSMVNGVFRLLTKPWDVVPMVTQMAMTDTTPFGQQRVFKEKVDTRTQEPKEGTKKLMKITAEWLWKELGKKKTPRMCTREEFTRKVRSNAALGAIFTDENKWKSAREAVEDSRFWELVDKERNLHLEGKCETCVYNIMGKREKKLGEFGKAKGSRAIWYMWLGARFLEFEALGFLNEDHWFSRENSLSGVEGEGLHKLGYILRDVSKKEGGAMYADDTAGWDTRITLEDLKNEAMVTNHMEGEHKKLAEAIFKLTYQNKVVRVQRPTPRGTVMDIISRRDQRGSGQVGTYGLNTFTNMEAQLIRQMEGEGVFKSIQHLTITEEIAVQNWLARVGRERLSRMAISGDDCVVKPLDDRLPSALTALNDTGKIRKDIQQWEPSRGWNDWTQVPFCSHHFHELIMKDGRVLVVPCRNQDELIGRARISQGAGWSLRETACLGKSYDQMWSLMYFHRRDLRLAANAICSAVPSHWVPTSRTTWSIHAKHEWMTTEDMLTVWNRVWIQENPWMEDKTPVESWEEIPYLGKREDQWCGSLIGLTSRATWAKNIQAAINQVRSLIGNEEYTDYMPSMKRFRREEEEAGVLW
Assay [10] deals with T4, Hexokinase HKDC1 (Homo sapiens, UniProt Q2TB90).
T4 sequence (Q2TB90 whole entry): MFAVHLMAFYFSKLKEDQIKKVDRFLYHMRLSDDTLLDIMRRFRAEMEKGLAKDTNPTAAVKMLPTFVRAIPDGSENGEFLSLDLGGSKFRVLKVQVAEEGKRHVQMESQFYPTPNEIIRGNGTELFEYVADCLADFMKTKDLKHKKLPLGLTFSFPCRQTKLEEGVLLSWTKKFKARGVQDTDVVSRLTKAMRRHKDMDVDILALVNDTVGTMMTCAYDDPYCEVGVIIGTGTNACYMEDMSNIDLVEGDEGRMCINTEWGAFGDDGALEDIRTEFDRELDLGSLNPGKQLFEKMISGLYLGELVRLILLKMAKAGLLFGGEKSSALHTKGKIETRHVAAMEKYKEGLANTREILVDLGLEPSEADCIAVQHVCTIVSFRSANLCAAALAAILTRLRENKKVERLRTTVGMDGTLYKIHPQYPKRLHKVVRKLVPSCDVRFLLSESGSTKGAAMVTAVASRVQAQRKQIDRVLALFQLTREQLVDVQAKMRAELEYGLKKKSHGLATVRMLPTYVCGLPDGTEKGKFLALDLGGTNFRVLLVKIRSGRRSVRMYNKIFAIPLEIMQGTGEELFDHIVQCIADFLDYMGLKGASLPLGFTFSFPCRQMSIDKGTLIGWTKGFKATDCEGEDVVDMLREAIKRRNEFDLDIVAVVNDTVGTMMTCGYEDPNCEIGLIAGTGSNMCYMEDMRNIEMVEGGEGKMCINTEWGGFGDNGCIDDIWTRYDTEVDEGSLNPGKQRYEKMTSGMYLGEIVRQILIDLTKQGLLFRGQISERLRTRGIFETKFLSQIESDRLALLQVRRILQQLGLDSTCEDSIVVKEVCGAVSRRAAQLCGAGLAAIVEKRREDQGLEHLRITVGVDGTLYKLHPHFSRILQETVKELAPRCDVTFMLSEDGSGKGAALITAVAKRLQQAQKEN
The assay can be described thus: activation of HKDC1 glucose phosphorylation – biochemical, W721R variant, dose response (AID 504730). Type of assay: functional.

For assay [11], the target named is Voltage-gated N-type calcium channel alpha-1B subunit/Amyloid beta A4 precursor protein-binding family A member 1 (Homo sapiens, UniProt Q00975+Q02410). It counts as protein assay.
Voltage-gated N-type calcium channel alpha-1B subunit/Amyloid beta A4 precursor protein-binding family A member 1, sequence (Q00975 whole entry): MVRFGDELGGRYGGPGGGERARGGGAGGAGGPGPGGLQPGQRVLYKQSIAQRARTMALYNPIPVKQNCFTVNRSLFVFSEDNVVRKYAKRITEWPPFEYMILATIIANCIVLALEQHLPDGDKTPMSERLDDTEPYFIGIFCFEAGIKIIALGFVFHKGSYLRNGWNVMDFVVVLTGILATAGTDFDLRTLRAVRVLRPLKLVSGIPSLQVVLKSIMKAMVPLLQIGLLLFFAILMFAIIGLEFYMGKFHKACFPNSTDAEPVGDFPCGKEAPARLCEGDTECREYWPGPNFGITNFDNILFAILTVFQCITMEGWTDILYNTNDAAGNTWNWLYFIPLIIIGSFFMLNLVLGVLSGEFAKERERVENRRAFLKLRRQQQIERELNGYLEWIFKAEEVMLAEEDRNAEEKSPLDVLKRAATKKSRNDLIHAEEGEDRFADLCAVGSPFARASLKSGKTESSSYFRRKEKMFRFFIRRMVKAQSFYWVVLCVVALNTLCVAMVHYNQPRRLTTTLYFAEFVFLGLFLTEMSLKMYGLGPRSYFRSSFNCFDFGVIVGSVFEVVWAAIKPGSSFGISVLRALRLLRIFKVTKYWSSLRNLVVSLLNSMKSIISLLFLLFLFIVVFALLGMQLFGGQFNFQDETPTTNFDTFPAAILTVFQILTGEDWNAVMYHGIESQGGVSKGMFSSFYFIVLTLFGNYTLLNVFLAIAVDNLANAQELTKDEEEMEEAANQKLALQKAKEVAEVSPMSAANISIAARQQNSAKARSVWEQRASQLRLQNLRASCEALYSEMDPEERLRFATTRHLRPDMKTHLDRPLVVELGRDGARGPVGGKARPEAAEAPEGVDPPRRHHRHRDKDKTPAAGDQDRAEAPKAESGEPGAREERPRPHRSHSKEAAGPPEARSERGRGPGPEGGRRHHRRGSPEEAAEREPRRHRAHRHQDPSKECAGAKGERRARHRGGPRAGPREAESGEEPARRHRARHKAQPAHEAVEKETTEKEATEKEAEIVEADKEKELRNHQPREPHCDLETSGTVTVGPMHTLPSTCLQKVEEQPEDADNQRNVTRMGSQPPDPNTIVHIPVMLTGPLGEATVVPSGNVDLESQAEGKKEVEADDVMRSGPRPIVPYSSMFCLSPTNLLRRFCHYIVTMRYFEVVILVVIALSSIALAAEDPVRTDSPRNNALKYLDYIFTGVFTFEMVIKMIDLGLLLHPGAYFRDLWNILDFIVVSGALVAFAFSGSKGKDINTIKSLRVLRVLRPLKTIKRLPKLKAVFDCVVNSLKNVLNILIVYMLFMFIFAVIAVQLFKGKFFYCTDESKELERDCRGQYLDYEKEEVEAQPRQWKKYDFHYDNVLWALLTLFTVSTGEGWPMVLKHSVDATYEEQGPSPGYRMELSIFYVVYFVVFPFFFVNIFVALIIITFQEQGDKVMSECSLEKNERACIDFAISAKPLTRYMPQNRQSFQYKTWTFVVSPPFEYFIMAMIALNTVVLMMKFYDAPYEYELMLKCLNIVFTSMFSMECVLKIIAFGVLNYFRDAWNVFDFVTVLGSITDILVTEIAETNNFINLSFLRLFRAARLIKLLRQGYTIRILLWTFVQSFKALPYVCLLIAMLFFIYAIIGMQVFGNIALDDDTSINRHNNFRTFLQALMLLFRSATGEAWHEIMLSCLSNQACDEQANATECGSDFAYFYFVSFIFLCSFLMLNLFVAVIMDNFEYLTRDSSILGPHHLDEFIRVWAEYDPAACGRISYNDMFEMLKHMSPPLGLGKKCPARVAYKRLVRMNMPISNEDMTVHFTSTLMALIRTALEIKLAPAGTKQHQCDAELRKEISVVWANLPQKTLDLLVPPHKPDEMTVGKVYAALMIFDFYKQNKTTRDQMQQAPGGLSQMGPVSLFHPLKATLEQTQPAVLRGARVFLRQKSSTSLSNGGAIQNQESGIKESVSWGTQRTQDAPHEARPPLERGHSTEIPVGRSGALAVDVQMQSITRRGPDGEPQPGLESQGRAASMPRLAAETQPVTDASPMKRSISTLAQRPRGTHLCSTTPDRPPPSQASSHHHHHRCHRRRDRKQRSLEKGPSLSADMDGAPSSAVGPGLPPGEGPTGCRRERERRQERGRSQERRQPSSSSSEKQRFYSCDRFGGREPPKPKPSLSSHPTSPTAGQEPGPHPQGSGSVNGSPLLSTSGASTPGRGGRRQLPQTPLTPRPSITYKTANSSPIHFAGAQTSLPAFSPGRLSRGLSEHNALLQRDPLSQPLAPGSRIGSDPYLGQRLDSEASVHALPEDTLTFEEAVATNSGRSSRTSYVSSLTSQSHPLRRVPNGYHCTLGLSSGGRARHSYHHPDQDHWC
Voltage-gated N-type calcium channel alpha-1B subunit/Amyloid beta A4 precursor protein-binding family A member 1, sequence (Q02410 whole entry): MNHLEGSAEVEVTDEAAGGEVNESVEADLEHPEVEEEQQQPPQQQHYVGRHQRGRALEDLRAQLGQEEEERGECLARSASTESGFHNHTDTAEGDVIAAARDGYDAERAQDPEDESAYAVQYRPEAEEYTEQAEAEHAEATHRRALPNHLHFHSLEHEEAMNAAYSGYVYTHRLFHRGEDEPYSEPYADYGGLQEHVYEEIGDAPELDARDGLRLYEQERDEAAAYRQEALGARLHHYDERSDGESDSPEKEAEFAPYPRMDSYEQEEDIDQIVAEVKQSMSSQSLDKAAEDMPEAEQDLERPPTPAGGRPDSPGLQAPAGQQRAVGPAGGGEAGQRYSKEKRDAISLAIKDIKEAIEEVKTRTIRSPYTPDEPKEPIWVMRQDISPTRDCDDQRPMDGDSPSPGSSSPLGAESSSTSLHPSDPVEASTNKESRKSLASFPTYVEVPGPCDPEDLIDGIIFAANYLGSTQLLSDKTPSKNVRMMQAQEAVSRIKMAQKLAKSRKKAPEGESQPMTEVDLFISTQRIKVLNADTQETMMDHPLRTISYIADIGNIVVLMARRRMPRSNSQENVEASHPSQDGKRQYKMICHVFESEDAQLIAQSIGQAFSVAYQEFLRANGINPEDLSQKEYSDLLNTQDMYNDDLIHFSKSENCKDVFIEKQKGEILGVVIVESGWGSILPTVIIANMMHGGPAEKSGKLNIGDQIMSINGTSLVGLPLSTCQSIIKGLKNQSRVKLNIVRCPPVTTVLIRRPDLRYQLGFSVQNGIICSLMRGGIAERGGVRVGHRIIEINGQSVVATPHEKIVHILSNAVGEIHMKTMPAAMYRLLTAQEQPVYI

RNA-editing ligase 1, mitochondrial, sequence (P86926 whole entry): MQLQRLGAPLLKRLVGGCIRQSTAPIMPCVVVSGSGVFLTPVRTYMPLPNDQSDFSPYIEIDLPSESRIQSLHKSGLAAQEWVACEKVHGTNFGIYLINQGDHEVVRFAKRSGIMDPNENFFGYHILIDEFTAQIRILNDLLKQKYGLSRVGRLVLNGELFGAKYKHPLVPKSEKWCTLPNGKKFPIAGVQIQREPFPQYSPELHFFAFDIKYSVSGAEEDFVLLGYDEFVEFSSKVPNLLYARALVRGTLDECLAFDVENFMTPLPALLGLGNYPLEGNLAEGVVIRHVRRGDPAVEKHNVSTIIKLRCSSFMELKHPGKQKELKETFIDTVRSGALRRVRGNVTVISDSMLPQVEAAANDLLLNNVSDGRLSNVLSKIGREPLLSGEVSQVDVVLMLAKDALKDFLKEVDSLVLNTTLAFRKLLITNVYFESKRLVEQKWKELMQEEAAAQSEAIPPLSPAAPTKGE

For orientation: IC50 means the concentration at which inhibition is half-maximal. In the case of `O=C(NC1(O)C(=O)c2ccccc2C1=O)c1ccccc1`, the IC50 in assay [1] was 13.7 µM (inactive); in assay [2], 4.39 µM (active); in assay [3], 2.99 µM (active).

The AC50 is the midpoint of the concentration-response curve, whichever way the signal moves. Regarding `O=C(Nc1ccccc1Cl)/C(Cl)=C(\Cl)[S+]([O-])c1ccccc1` (stereo unspecified), the AC50 in assay [4] is 5.77 µM (active). Further, in [5], the half-maximal inhibitory concentration (IC50) was 1.18 µM (active).

For `CCCCCCCCCCCCCCCCn1cc[n+](C)c1`, the AC50 was 22 µM (active) in assay [6] and 7.76 µM (active) in assay [8]. Also, the IC50 in assay [7] is recorded as 11.4 µM (not active).

Consider `Cc1ccc(C)c(S(=O)(=O)/N=C2\C=C(NS(=O)(=O)c3ccccc3)C(=O)c3ccccc32)c1`, for which the IC50 in assay [9] was 97.8 µM (active).

The term EC50 denotes the concentration that produces a half-maximal response. As to `Cc1cc(C)nc(/N=c2/ssnc2Cl)c1`, the EC50 in [10] is 43.1 µM (inactive). Moreover, the IC50 in assay [11] is > 50 µM (inactive).
